Measured values: ChEMBL document CHEMBL4400537, “Virtual Screening Identifies Irreversible FMS-like Tyrosine Kinase 3 Inhibitors with Activity toward Resistance-Conferring Mutations” (J Med Chem, 2019)
The source made the active and inactive calls. The calls are words filed in the database; no cut-off is given here.

Key:
MV4-11 [1] = experiment: cells; conditions: Homo sapiens, MV4-11, 72 h
[2] = target: Platelet-derived growth factor receptor alpha (Homo sapiens) (UniProt P16234); experiment: Inhibition of full length human N-terminal 6His-tagged PDGFRalpha expressed in baculovirus expression system at 100 nM relative to control
[3] = target: Receptor-type tyrosine-protein kinase FLT3 (Homo sapiens, UniProt P36888, D835H)
[4] = target: Receptor-type tyrosine-protein kinase FLT3 (Homo sapiens, UniProt P36888, D835Y); experiment: Irreversible inhibition of recombinant human FLT3 D835Y mutant (571 to 993 residues) expressed in baculovirus expression system preincubated for 5 to 30 mins followed by myelobasic protein addition measured after 120 mins in presence of ATP by ADP-Glo assay
[5] = target: Tyrosine-protein kinase Lck (Homo sapiens) (UniProt P06239); experiment: Inhibition of full length human N-terminal 6His-tagged LCK expressed in baculovirus expression system at 100 nM relative to control
[6] = target: T1, Receptor-type tyrosine-protein kinase FLT3 (Homo sapiens, UniProt P36888); experiment: Binding affinity to auto-inhibited form of wild type human N-terminal GST-tagged FLT3 expressed in baculovirus expression
[7] = target: Glycogen synthase kinase-3 alpha (Homo sapiens) (UniProt P49840); experiment: Inhibition of human N-terminal His-tagged GSK3alpha expressed in baculovirus expression system assessed as residual activity at 100 nM relative to control
[8] = tested on: T2, Receptor-type tyrosine-protein kinase FLT3 (Homo sapiens), P36888 [D835Y]; experiment: Inhibition of covalent binding of 100 uM (Z)-N-(2-(2-(4-(2,8-Diethyl-5,5-difluoro-1,3,7,9-tetramethyl-5H-4lambda4,5lambda4-dipyrrolo[1,2-c:2',1'-f ][1,3,2]diazaborinin-10-yl)phenoxy)-acetamido)ethyl)-2,4-dimethyl-5-((2-oxo-5-(vinylsulfon-amido)-indolin-3-ylidene)methyl)-1H-pyrrole-3-carboxamide to recombinant human FLT3 D835Y mutant (571 to 993 residues) expressed in baculovirus expression system at 100 uM by Western blot analysis
T2 sequence (whole entry): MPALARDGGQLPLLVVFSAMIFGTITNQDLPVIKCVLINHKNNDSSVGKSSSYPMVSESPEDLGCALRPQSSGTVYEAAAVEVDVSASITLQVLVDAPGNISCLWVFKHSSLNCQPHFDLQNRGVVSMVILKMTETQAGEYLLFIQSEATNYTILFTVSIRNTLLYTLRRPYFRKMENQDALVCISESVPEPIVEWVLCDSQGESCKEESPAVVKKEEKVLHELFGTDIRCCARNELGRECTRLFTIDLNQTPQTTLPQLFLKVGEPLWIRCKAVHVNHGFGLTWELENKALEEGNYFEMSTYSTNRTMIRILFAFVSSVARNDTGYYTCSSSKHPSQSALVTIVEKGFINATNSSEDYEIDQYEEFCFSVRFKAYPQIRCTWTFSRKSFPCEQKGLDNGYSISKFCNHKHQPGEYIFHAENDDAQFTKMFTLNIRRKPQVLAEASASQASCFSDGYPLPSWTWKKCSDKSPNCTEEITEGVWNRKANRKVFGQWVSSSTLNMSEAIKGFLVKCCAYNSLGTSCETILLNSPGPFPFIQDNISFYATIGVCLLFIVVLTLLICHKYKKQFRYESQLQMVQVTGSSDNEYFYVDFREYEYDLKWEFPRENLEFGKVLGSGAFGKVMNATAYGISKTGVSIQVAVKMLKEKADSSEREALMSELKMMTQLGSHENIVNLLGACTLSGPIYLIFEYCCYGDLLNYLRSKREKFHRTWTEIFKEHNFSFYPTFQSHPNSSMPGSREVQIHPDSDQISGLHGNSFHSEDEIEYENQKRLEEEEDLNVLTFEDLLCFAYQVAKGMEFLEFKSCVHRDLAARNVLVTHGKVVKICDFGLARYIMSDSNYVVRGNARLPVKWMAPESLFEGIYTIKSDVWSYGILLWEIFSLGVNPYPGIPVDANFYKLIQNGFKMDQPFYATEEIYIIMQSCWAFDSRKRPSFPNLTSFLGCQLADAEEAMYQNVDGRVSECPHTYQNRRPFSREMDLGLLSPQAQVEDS

[9] = target: Mitogen-activated protein kinase 3 (Homo sapiens) (UniProt P27361); experiment: Inhibition of full length N-terminal GST-tagged human ERK1 expressed in baculovirus expression system assessed as residual activity at 100 nM relative to control
[10] = target: Glycogen synthase kinase-3 beta (Homo sapiens) (UniProt P49841); experiment: Inhibition of human N-terminal His-tagged GSK3beta expressed in baculovirus expression system assessed as residual activity at 100 nM relative to control
MOLM-14 = experiment: cells; conditions: Homo sapiens, MOLM-14, 72 h
Jurkat = experiment: cells; conditions: Homo sapiens, 72 h
[11] = tested on: T2, Receptor-type tyrosine-protein kinase FLT3 (Homo sapiens), P36888 [D835Y]; experiment: Inhibition of recombinant human FLT3 D835Y mutant (571 to 993 residues) expressed in baculovirus expression system at 100 nM preincubated for 24 hrs in presence of 1000 fold glutathione followed by myelobasic protein addition and measured after 120 mins relative to control
[12] = target: Proto-oncogene tyrosine-protein kinase receptor Ret (Homo sapiens) (UniProt P07949); experiment: Inhibition of full length human N-terminal GST-tagged RET expressed in baculovirus expression system at 100 nM relative to control
[13] = target: Receptor-type tyrosine-protein kinase FLT3 (Homo sapiens, UniProt P36888, D835V/ITD)
[14] = target: Interleukin-1 receptor-associated kinase 1 (Homo sapiens) (UniProt P51617); experiment: Inhibition of full length human N-terminal 6His-tagged IRAK1 expressed in baculovirus expression system at 100 nM relative to control
[15] = target: Receptor-type tyrosine-protein kinase FLT3 (Homo sapiens, UniProt P36888, ITD)
[16] = tested on: T2, Receptor-type tyrosine-protein kinase FLT3 (Homo sapiens), P36888 [D835Y]; experiment: Inhibition of recombinant human FLT3 D835Y mutant (571 to 993 residues) expressed in baculovirus expression system at 100 nM preincubated for 30 mins in presence of 1000 fold glutathione followed by myelobasic protein addition and measured after 120 mins relative to control
[17] = target: Mitogen-activated protein kinase 1 (Homo sapiens) (UniProt P28482); experiment: Inhibition of human N-terminal GST-tagged ERK2 (14 to 429 residues) expressed in baculovirus expression system assessed as residual activity at 100 nM relative to control
[18] = target: Receptor-type tyrosine-protein kinase FLT3 (Homo sapiens) (UniProt P36888); experiment: Inhibition of human N-terminal GST-tagged FLT3 expressed in baculovirus expression system at 100 nM relative to control
THP-1 = experiment: cells; conditions: Homo sapiens, THP-1, 72 h
[19] = target: Mast/stem cell growth factor receptor Kit (Homo sapiens) (UniProt P10721); experiment: Inhibition of human N-terminal GST-tagged c-KIT expressed in baculovirus expression system at 100 nM relative to control
[20] = target: Tyrosine-protein kinase Lyn (Homo sapiens) (UniProt P07948); experiment: Inhibition of full length human N-terminal 6His-tagged LYN expressed in baculovirus expression system at 100 nM relative to control
[21] = target: Platelet-derived growth factor receptor beta (Homo sapiens) (UniProt P09619); experiment: Inhibition of full length human N-terminal GST-tagged PDGFRbeta expressed in baculovirus expression system at 100 nM relative to control
[22] = target: T1, Receptor-type tyrosine-protein kinase FLT3
[23] = tested on: T2, Receptor-type tyrosine-protein kinase FLT3 (Homo sapiens), P36888 [D835Y]; experiment: Inhibition of human FLT3 D835Y mutant expressed in baculovirus expression system at 100 nM relative to control
[24] = target: Tyrosine-protein kinase receptor UFO (Homo sapiens) (UniProt P30530); experiment: Inhibition of full length human N-terminal 6His-tagged AXL expressed in baculovirus expression system at 100 nM relative to control
MV4-11 [25] = experiment: Cytotoxicity in human MV4-11 cells assessed as induction of cell death at 10 uM incubated for 72 hrs by CellTiter-Blue assay; format: functional

Chain of Interleukin-1 receptor-associated kinase 1 (Homo sapiens) (P51617 whole entry, looked up): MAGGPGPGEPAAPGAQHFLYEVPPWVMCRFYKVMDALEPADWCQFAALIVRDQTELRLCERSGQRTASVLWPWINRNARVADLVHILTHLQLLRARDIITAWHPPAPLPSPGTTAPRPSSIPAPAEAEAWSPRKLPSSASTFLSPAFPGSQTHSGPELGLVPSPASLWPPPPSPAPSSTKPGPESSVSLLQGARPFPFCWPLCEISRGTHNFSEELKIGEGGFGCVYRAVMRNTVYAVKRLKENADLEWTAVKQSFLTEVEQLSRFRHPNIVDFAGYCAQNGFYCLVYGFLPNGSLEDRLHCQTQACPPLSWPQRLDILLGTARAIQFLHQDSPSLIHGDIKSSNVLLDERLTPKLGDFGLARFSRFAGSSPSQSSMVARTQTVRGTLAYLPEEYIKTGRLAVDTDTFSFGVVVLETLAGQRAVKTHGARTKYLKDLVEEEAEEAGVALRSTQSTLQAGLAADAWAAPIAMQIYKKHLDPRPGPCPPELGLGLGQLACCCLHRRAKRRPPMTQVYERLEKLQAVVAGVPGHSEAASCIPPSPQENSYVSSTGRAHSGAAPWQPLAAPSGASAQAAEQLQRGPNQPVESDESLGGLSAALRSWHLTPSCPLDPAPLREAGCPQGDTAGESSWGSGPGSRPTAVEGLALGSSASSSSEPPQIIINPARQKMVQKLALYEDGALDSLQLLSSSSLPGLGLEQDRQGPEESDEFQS
Chain of Platelet-derived growth factor receptor alpha (Homo sapiens) (P16234 whole entry): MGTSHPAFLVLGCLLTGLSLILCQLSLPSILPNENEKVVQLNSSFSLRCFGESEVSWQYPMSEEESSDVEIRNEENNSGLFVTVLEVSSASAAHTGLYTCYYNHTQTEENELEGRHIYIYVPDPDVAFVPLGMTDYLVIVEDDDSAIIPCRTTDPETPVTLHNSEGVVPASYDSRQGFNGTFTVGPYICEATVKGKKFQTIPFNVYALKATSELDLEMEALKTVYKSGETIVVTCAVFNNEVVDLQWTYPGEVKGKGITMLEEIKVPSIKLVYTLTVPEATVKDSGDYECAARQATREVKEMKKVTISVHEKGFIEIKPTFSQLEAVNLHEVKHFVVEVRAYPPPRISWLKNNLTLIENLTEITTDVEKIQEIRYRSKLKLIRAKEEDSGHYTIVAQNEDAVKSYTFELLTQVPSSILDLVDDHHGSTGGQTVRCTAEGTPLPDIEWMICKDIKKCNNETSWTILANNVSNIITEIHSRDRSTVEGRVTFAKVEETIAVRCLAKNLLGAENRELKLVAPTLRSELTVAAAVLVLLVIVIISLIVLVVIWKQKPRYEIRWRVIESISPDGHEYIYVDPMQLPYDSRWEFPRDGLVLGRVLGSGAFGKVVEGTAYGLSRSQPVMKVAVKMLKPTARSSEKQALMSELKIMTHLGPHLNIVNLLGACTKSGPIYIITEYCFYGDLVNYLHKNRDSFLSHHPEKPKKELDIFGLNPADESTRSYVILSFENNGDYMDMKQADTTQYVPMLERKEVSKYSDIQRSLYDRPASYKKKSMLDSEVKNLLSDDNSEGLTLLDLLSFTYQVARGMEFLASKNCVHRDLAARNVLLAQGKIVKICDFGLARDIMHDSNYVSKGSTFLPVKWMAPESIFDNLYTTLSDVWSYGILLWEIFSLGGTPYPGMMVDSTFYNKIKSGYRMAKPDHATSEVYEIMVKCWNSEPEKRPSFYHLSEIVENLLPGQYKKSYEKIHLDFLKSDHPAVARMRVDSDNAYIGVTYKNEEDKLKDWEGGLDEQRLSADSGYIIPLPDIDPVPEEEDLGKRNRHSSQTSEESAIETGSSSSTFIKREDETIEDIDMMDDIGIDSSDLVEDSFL
Chain of Tyrosine-protein kinase Lck (Homo sapiens) (P06239 2-509 limits assumed): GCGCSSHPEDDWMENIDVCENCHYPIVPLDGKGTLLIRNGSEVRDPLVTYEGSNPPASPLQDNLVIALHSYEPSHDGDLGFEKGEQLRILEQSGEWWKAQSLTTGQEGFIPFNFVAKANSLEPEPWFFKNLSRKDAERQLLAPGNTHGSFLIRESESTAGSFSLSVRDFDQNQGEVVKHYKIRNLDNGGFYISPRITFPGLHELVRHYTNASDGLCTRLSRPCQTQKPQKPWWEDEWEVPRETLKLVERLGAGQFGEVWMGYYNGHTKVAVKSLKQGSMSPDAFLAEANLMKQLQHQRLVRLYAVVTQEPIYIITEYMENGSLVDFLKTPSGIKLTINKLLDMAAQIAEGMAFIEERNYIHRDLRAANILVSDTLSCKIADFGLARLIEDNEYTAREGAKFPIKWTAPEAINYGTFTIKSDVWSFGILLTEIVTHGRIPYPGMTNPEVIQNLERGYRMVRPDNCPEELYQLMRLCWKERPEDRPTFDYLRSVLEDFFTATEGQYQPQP
Chain of Platelet-derived growth factor receptor beta (Homo sapiens) (P09619 whole entry): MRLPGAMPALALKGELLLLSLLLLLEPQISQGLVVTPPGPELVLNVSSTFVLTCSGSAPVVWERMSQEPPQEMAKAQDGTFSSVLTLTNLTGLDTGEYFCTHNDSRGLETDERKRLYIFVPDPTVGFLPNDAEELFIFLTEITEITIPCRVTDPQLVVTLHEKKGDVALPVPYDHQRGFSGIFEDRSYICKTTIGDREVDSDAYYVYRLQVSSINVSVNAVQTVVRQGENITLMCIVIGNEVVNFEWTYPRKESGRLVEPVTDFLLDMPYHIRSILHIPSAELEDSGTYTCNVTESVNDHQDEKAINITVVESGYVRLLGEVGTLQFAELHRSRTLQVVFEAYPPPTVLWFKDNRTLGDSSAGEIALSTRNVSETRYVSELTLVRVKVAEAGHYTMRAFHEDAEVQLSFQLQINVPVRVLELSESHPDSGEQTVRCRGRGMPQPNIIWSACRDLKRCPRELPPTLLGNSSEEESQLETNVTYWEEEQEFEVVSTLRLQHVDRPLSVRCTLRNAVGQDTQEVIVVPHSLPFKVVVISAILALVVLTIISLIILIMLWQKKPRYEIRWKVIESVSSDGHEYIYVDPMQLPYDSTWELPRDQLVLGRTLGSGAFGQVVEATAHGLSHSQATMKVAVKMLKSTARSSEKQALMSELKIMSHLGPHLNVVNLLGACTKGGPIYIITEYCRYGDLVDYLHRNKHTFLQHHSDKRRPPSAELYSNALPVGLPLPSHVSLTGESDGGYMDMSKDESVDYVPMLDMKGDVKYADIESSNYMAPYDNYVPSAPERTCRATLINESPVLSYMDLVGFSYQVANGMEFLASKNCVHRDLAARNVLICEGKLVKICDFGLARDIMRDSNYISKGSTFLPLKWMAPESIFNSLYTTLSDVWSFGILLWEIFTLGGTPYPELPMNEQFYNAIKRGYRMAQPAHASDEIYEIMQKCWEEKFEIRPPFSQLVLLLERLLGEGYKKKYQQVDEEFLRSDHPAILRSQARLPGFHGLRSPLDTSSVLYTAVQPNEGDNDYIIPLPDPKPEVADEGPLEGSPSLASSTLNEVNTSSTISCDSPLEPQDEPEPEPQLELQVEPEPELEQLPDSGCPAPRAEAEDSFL
Chain of Glycogen synthase kinase-3 alpha (Homo sapiens) (P49840 2-483 limits assumed): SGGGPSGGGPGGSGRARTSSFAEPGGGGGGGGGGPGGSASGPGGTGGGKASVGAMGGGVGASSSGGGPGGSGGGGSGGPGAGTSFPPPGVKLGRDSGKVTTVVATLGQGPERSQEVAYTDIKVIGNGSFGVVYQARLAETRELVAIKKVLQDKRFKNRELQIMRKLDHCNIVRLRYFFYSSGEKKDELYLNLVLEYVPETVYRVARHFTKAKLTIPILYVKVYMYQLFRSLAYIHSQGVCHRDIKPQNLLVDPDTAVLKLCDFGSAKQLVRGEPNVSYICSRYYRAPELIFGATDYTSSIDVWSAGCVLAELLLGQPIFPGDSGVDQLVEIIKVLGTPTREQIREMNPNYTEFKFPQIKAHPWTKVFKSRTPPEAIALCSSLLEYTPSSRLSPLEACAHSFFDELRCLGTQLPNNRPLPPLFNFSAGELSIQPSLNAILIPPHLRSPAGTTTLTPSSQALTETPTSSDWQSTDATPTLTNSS
Chain of Mast/stem cell growth factor receptor Kit (Homo sapiens) (P10721 whole entry): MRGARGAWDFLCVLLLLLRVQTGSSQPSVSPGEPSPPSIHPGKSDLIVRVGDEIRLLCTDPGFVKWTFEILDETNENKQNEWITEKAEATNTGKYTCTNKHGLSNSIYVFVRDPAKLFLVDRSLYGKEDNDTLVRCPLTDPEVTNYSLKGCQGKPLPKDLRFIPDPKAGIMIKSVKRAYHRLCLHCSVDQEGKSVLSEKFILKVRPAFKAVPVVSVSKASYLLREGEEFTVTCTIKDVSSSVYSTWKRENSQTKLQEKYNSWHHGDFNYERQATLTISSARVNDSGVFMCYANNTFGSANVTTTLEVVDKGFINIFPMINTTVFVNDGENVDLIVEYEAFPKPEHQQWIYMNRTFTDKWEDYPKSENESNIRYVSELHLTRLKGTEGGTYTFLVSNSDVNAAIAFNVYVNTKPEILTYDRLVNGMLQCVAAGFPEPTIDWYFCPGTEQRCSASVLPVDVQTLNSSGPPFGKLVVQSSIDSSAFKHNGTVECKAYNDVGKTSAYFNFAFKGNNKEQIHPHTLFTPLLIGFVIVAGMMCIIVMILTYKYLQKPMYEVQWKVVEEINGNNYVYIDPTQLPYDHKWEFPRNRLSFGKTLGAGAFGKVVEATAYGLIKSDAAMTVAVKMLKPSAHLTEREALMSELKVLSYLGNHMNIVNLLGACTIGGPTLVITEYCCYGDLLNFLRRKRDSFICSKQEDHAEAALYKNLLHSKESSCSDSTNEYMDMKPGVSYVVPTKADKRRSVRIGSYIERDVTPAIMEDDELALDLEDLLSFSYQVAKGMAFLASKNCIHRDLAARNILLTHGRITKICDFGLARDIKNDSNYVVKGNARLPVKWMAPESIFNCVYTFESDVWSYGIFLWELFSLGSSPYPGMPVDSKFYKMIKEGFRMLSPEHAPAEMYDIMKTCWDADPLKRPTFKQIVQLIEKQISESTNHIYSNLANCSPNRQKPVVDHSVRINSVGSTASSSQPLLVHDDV

SMILES: C=CS(=O)(=O)Nc1ccc2c(c1)/C(=C/c1[nH]c(C)c(C(=O)NCCN(CC)CC)c1C)C(=O)N2
- IC50 (MV4-11 [1]): 6 nM
- inhibition [2]: 24%
- Kd [3]: 1.3 nM
- Ki [4]: 1.98 nM
- inhibition [5]: 81 to 93%
- Kd [6]: 65 nM
- inhibition [7]: inactive
- inhibition [8]: 28%
- inhibition [9]: inactive
- inhibition [10]: inactive
- IC50 (MOLM-14): 7.8 nM
- IC50 (Jurkat): > 1000 nM
- inhibition [11]: 37%
- inhibition [12]: 96%
- Kd [13]: 0.83 nM
- inhibition [14]: 81 to 93%
- Kd [15]: 5.8 nM
- inhibition [16]: 68%
- inhibition [17]: inactive
- inhibition [18]: 95%
- IC50 (THP-1): > 1000 nM
- inhibition [19]: 34%
- inhibition [20]: 81 to 93%
- inhibition [21]: 14%
- Kd [22]: 2.3 nM
- inhibition [23]: 99%
- inhibition [24]: 81 to 93%

SMILES: Cc1cc(Nc2ccnc(Nc3ccccc3)n2)n[nH]1
- IC50 (MV4-11 [1]): > 1 nM
- Activity (MV4-11 [25]): 89%
